According to patent US20130252930A1 (BIOMARIN PHARMACEUTICAL INC., priority 2010, published 2013):
Like-named read-outs stand apart in the source and are kept apart here.

Legend:
[1] = biological target: T1, CYP17 (human testicular microsome) (Homo sapiens, UniProt P05093); test: CYP17 enzymatic assay (% inhibition at 10 nM), version 1 (Biological Example 5); type: biochemical
T1 construct: using microsomal fraction from human testis (Celsis Cat #S00110) as the enzyme source; tissue Celsis S00110; host or cells: human testis microsomal fraction
T1 sequence (P05093 1-508): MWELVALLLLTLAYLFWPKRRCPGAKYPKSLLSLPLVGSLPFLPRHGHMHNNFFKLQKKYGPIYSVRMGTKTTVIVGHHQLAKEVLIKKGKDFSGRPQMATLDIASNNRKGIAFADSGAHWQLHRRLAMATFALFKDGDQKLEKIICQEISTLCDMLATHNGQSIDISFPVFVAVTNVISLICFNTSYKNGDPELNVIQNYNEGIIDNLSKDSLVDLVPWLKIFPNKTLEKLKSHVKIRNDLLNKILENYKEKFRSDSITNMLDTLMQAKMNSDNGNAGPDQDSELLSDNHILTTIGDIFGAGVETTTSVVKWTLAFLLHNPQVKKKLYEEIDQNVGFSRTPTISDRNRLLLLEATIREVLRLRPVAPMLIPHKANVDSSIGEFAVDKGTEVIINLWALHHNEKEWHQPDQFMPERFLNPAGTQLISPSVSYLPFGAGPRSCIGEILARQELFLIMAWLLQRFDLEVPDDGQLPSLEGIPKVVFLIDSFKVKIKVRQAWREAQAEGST

[2] = biological target: T2, Cyp21 enzyme (Human HEK 293-Cyp21 stable transfected cells) (Homo sapiens, UniProt P08686); test: CYP21-HEK293 enzymatic assay (% inhibition at 100 nM) (Biological Example 10); type: cell-based; conditions: HEK 293-Cyp21 cells
T2 construct: expressed in transfected cells
T2 sequence (P08686 1-495): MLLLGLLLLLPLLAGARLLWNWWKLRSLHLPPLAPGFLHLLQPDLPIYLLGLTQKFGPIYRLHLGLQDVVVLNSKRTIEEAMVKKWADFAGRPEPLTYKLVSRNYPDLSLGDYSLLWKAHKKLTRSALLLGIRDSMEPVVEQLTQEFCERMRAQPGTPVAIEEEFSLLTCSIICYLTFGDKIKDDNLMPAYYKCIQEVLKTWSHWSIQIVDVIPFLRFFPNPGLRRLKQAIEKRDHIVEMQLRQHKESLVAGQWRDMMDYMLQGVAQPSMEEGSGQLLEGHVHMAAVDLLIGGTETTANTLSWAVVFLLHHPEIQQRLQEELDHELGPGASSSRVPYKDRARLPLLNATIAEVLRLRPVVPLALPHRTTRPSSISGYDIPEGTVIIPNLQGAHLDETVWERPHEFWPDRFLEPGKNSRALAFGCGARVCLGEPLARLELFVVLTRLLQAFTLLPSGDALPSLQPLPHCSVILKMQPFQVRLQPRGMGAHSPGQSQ
Protocol: Proceeding using methods similar to those described in Biological Example 11, the percent inhibition at 100 nM was measured.
This assay was used to determine compound activity against Cyp21 enzyme. Human HEK 293-Cyp21 stable transfected cells (maintained in complete growth media DMEM+10% FBS, supplemented with 125 ug/mL Hygromycin) were seeded in a 96-well plate at 20,000 cells/well/100 uL in DMEM plus 10% FBS and allowed to attach overnight. The next day, 20 μL medium was carefully removed and 10 μL of 10× pre-made compounds in DMEM+10% FBS+10% methanol was transferred to the wells to final concentrations of 1000, 100, 10, 1, or 0.1 nM. Mock treatment was 1% methanol in growth media and the cells were left at 37° C., 5% CO2 for 5 hr. After the incubation, 10 μL of substrate progesterone (Sigma) was added to the wells to make a final concentration of 10 μM. The cells were incubated the cells at 37° C. for 20 hr. At the end of incubation, 90 μL of conditioned media was removed to measure DOC level by ELISA.
Preparation of the DOC ELISA: 100 μL of coating buffer (0.025M PBS pH 7.4) containing 200 ng/mL DOC-3-carboxymethyloxime-BSA (Steraloids. inc, Cat#3469-000) was added to each well of a 96-well plate and incubated overnight at 4° C. The next day, the plates were washed twice with 250 μl of wash solution (0.015M PBS pH 7.4 containing 0.05% Tween 20). After being washed, the wells were blocked with 250 μL blocking buffer (3% BSA in 0.025M PBS, pH 7.4) at 37° C. for 2 h. The plates were washed again 3 times as before, and then 90 μL of sample /standards (prepared in complete growth media) was added into the appropriate wells followed by 10 μL of antibody solution (1:450 rabbit anti-DOC in 0.6% BSA/PBS). The plates were incubated at room temperature for 2 h on a shaker. The contents of the wells were removed and the plate was washed 4 times. After the final wash, 100 μL of secondary antibody (1:12000 HRP-goat-anti-rabbit IgG conjugate 0.6% BSA/PBS) was added into each well. The plate was incubated at 30° C. for 45 min. The plate was washed again 4 times and 100 μL of TMB substrate solution was added to each well. The plate was incubated at room temperature for 10 min. 100 μL of stop solution was added to each well and the optical density was read at 450 nm.
The mean absorbance value for each sample was used to determine the corresponding concentration from the standard curve. Data was analyzed with “log(antagonist) vs response variable slope” under “non-linear regression analysis” using Prism5 software.

[3] = biological target: T1, CYP17 (human testicular microsome); test: CYP17 enzymatic assay (IC50) (Biological Example 4); type: biochemical
[4] = tested on: rat Cyp11B enzyme (rat adrenal mitochondria); test: CYP11B enzymatic assay (% inhibition at 100 nM) (Biological Example 9); type: biochemical; conditions: for Biological Example No. 9: CYP11B percent inhibition at 100 nM: 100 nM compound, cortisol by ELISA; for CYP11B enzymatic assay % inhibition at 100 nM (Biological Example No. 9): compound at 100 nM
In short: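 Sprague Dawley rat adrenal mitochondria were incubated with compound at 100 nM, 0.5 mM NADPH and 0.1 μM 11-deoxycortisol (pH 7.4 Tris buffer) for 60 min at 37 °C. Cortisol was measured by ELISA and corrected by subtracting the no-NADPH background. % inhibition is relative to the no-compound reaction.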

[5] = Human liver microsome stability assay (Biological Example 8b); conditions: liver microsomes, pH 7.4
Protocol: The reaction was started with addition of excess NADPH (5 mg/mL, 15 μL in 0.1 M potassium phosphate buffer, 1.0 mM EDTA, pH 7.4), the total volume is 45 μL (compound final concentration was 1 μM). […] 50 μL of the supernatant was transferred from each well into a 96-well sample plate containing 50 μL of ultra-pure water (Millipore) for LC-MS/MS analysis.

[6] = biological target: T1, CYP17 (human testicular microsome); test: CYP17 enzymatic assay (% inhibition at 1 nM) (Biological Example 12); type: biochemical; conditions: compound at 1 nM, read-out: CYP17 enzymatic assay % inhibition at 1 nM (Biological Example No. 12)
[7] = biological target: T3, CYP17 (H295R cells) (Homo sapiens, UniProt P05093); test: CYP17 cellular assay (IC50), testosterone in H295R cells (Biological Example 7); type: cell-based; conditions: H295R cells, testosterone; read-out: CYP17 cellular assay IC50 (Biological Example No. 7)
T3 construct: endogenous in cells; host or cells: H295R cells
T3 sequence (P05093 1-508): T1 sequence (P05093 1-508)
In short: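 Testosterone in the medium was quantified by ELISA after 24 h at 37 °C with test compound (final 100, 10, 1, 0.1 nM; serum-free DMEM/F-12, ITS+, 0.1% methanol). The H295R cells had been seeded and grown 24 h beforehand; vehicle wells served as control.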

[8] = 10 nM compound, DHEA by ELISA, read-out: Biological Example No. 5: CYP17 percent inhibition at 10 nM (version 1)
[9] = 100 nM compound, read-out: Biological Example No. 10: CYP21-HEK293 percent inhibition at 100 nM
[10] = human testicular microsome, DHEA by ELISA, read-out: Biological Example No. 4: CYP17 enzymatic assay IC50
[11] = compound at 100 nM, read-out: CYP21-HEK293 enzymatic assay % inhibition at 100 nM (Biological Example No. 10)
[12] = human testicular microsome, read-out: CYP17 enzymatic assay IC50 (Biological Example No. 4)

SMILES	inhibition at 0.01 µM [1, 8]	inhibition at 0.1 µM [2, 9]	IC50 [3, 10]	Biological Example No. 9: CYP11B percent inhibition at 100 nM [4]	half-life at 1 μM [5]	IC50 [3]	inhibition at 0.001 µM [6]	inhibition at 0.1 µM [2, 11]	IC50 [3, 12]	CYP11B enzymatic assay % inhibition at 100 nM (Biological Example No. 9) [4]	inhibition at 0.01 µM ([1]; compound at 10 nM, read-out: CYP17 enzymatic assay % inhibition at 10 nM (Biological Example No. 5))	IC50 [7]
C[C@]12CC[C@H]3[C@@H](CCN4C(=O)CCCC[C@]34C)[C@@H]1CC=C2c1cccnc1 [Compound 38, (11aR,13aS)-11a,13a-dimethyl-1-(pyridin-3-yl)-3b,4,5,8,9,10,11,11a,11b,12,13,13a-dodecahydro-3H-azepino[2,1-a]cyclopenta[f]isoquinolin-7(3aH)-one]	50 to 80%	< 30%	< 11 nM	na (“na” means the compound was not active under the conditions tested)	–	–	–	–	–	–	–	–
C[C@]12CCCCC1C(=O)C[C@@H]1[C@@H]2CC[C@]2(C)C(n3ccnc3)=CC[C@@H]12 (stereo partly drawn) [Compound 88, (10R,13S)-17-(1H-imidazol-1-yl)-10,13-dimethyl-2,3,4,5,7,8,9,11,12,13,14,15-dodecahydro-1H-cyclopenta[a]phenanthren-6(10H)-one]	> 80%	< 30%	< 11 nM	T (T means the compound had a percent inhibition of less than 32% when tested at 100 nM)	–	–	–	–	–	–	–	–
CN1CC[C@@]2(C)C(=CC1=O)CC[C@H]1C3=CC=C(c4cccnc4)[C@@]3(C)CC[C@@H]12 [Compound 158]	> 80%	≥ 30%	< 11 nM	T (T means the compound had a percent inhibition of less than 32% when tested at 100 nM)	1 to 50 min	–	–	–	–	–	–	–
C[C@]12CC[C@H]3[C@@H](CC[C@H]4CC(=O)CC[C@@]43C)C1=CC=C2c1cccnc1 [Compound 164, (5S,8R,9S,10S,13S)-10,13-dimethyl-17-(pyridin-3-yl)-4,5,6,7,8,9,10,11,12,13-decahydro-1H-cyclopenta[a]phenanthren-3(2H)-one]	> 80%	≥ 30%	< 11 nM	U (U means the compound had a percent inhibition of greater than or equal to 32%)	1 to 50 min	–	–	–	–	–	–	–
C[C@]12CC[C@H]3[C@@H](CC[C@H]4CC(=O)CC[C@@]43C)C1=CC=C2n1ccnc1 [Compound 171]	> 80%	< 30%	–	T (T means the compound had a percent inhibition of less than 32% when tested at 100 nM)	1 to 50 min	< 11 nM	–	–	–	–	–	–
C[C@]12CCC(NC(=O)C3CC3)CC1=CCC1C2CC[C@]2(C)C(n3ccnc3)=CCC12 (stereo partly drawn) [Compound 238, N-((10R,13S)-17-(1H-imidazol-1-yl)-10,13-dimethyl-2,3,4,7,8,9,10,11,12,13,14,15-dodecahydro-1H-cyclopenta[a]phenanthren-3-yl)cyclopropanecarboxamide]	–	–	–	–	1 to 50 min	–	> 50%	< 30%	< 11 nM	U (U means the compound had a percent inhibition of greater than or equal to 32%)	–	–
C[C@]12CC[C@H]3[C@@H](CC[C@H]4CC(=O)NCC[C@@]43C)C1=CC=C2n1ccnc1 [Compound 447, (5aS,5bS,7aS,10bR,12aS)-8-(1H-imidazol-1-yl)-5a,7a-dimethyl-3,4,5,5a,5b,6,7,7a,10b,11,12,12a-dodecahydrocyclopenta[5,6]naphtho[1,2-d]azepin-2(1H)-one]	–	–	–	–	1 to 50 min	–	–	≥ 30%	< 11 nM	na (“na” means the compound was not active under the conditions tested)	> 80%	–
Cc1ccncc1C1=CC[C@H]2[C@@H]3CC[C@H]4CC(=O)NCC[C@]4(C)[C@H]3CC[C@]12C [Compound 462, (5aS,5bS,7aS,10aS,10bR,12aS)-5a,7a-dimethyl-8-(4-methylpyridin-3-yl)-3,4,5,5a,5b,6,7,7a,10,10a,10b,11,12,12a-tetradecahydrocyclopenta[5,6]naphtho[1,2-d]azepin-2(1H)-one]	–	–	–	–	–	–	10 to 50%	< 30%	–	T (T means the compound had a percent inhibition of less than 32% when tested at 100 nM)	–	< 15 nM
